Assay results from patent US20170156324A1 (Dow AgroSciences LLC, priority 2015, published 2017).
Values joined by “and” are separate entries in the source; they are usually repeats but may differ in a detail not shown here. Equal values may be shown once.

Columns and labels:
Assay type in all cases: in vivo
[1] = tested on: Matricaria inodora (scentless mayweed, MATIN); experiment: Field trial, post-emergence % visual weed control, MATIN; conditions: 14DAA
Text: (§1) Except for the trials utilizing the OD formulations, Actirob B was applied at 0.5 or 1.0 liters per hectare (L/ha), or Polyglycol 26-2 was applied at 0.5 to 1.0 L/ha in all respective single and tankmixture treatments being evaluated.
(§2) Trials were established as randomized complete blocks (RCBD) with three to four replicates. Individual treatments were 2-2.5 meters (m) wide and 6-20 m long. An untreated control was included in each trial. All trial sites had naturally occurring populations of weeds.
(§3) Herbicides were applied with backpack or bicycle sprayers using compressed air, nitrogen (N2) or carbon dioxide (CO2) as a propellant. All sprayers delivered a uniform spray pattern that provided thorough coverage of the foliage using a water volume of 150-300 L/ha. All herbicides were applied post-emergence in the spring to early-summer At the time of herbicide applications, winter wheat crops were at the six-leaf to three-tiller stage. Broadleaf and grass weeds were at a similar stage of growth at the time of herbicide application, typically from five leaf to 3 tiller depending on the weed species and time of year.
(§4) The treated plots and control plots were rated blind at various intervals after application. […] The control of the target weeds was visually assessed as percent control, compared to an untreated control plot. The assessments were based on a percent visual reduction in pest plant biomass and/or stand reduction of weed population.
(§5) The efficacy of all treatments was assessed at 13-22 days after application (DAA) for an early season rating, 23-39 DAA for a mid-season rating, and 41-84 DAA for a late-season rating. The data were statistically analyzed using various statistical methods, generally including a Tukey's HSD Factorial Analysis of Variance with a significance level of 5%.
(§6) Colby's equation was used to determine the herbicidal effects expected from the mixtures (Colby, S. R. Calculation of the synergistic and antagonistic response of herbicide combinations. Weeds 1967, 15, 20-22). A t-test (alpha=0.05) between Colby predictions and observed combinations was used to test for significant differences indicating synergy or antagonism using replicate data.
(§7) Expected=A+B+C−(AB+AC+BC)/100+(ABC)/10,000

[2] = tested on: Viola arvensis Murr. (field violet, VIOAR); experiment: Field trial, post-emergence % visual weed control, VIOAR
Text: as §1, §2, §3, §4, §5, §6, §7

[3] = tested on: Lamium purpureum L. (purple deadnettle, LAMPU); experiment: Field trial, post-emergence % visual weed control, LAMPU; conditions: 15DAA, 3.75 g ai/ha
Text: as §1, §2, §3, §4, §5, §6, §7

[4] = tested on: Matricaria recutita L. (wild chamomile, MATCH); experiment: Field trial, post-emergence % visual weed control, MATCH; conditions: 3.75 g ai/ha
Text: as §1, §2, §3, §4, §5, §6, §7

[5] = tested on: Stellaria media (L.) Vill. (common chickweed, STEME); experiment: Field trial, post-emergence % visual weed control, STEME; conditions: 3.75 g ai/ha
Text: as §1, §2, §3, §4, §5, §6, §7

[6] = tested on: Centaurea cyanus (cornflower, CENCY); experiment: Field trial, post-emergence % visual weed control, CENCY
Text: as §1, §2, §3, §4, §5, §6, §7

[7] = tested on: Galium aparine L. (catchweed bedstraw, GALAP); experiment: Field trial, post-emergence % visual weed control, GALAP; conditions: 28DAA, 3 g ai/ha
Text: as §1, §2, §3, §4, §5
(§8) Colby's equation was used to determine the herbicidal effects expected from the mixtures (Colby, S. R. Calculation of the synergistic and antagonistic response of herbicide combinations. Weeds 1967, 15, 20-22). […]

[8] = tested on: Solanum nigrum L. (black nightshade, SOLNI); experiment: Field trial, post-emergence % visual weed control, SOLNI; conditions: 6.25 g ai/ha
Text: as §1, §2, §3, §4, §5, §6, §7

[9] = tested on: Consolida regalis S. F. Gray (branching larkspur, CNSRE); experiment: Field trial, post-emergence % visual weed control, CNSRE
Text: as §1, §2, §3, §4, §5, §6, §7

[10] = tested on: Agropyron repens L. (quackgrass, AGRRE); experiment: Field trial, post-emergence % visual weed control, AGRRE; conditions: 14DAA, 4 g ai/ha
Text: as §1, §2, §3, §4, §5, §8

[11] = tested on: Alopecurus myosuroides Huds. (blackgrass, ALOMY); experiment: Field trial, post-emergence % visual weed control, ALOMY; conditions: 15DAA, 3 g ai/ha
Text: as §1, §2, §3, §4, §5, §8

[12] = tested on: Apera spica-venti (L.) Beauv. (windgrass, APESV); experiment: Field trial, post-emergence % visual weed control, APESV
Text: as §1, §2, §3, §4, §5, §6, §7

[13] = tested on: Echinochloa crus-galli (L.) P. Beauv. (barnyardgrass, ECHCG); experiment: Field trial, post-emergence % visual weed control, ECHCG; conditions: 6.25 g ai/ha
Text: as §1, §2, §3, §4, §5, §6, §7

## COc1ncc(F)c2nc(S(=O)(=O)Nc3c(F)cccc3F)nn12 [Florasulam, N-(2,6-difluorophenyl)-8-fluoro-5-methoxy[1,2,4]triazolo[1,5-c]pyrimidine-2-sulfonamide]
[1]; 3 g ai/ha
  Mean % Weed Control: 30.0%
[1]; 4 g ai/ha
  Mean % Weed Control: 35.0%
[2]; 14DAA, 3 g ai/ha
  Mean % Weed Control: 0.0%
[2]; 56DAA, 4 g ai/ha
  Mean % Weed Control: 20.0%
[3]
  Mean % Weed Control: 0.0%
[4]; 15DAA
  Mean % Weed Control: 10.0%
[4]; 61DAA
  Mean % Weed Control: 85.0% and 67.4%
[4]; 78DAA
  Mean % Weed Control: 76.3%
[5]; 15DAA
  Mean % Weed Control: 0.0%
[5]; 61DAA
  Mean % Weed Control: 68.8% and 56.1%
[5]; 78DAA
  Mean % Weed Control: 31.3%
[6]; 28DAA, 3 g ai/ha
  Mean % Weed Control: 48.8%
[6]; 28DAA, 4 g ai/ha
  Mean % Weed Control: 75.0%
[6]; 56DAA, 3 g ai/ha
  Mean % Weed Control: 27.5% and 48.8%
[6]; 77DAA, 3 g ai/ha
  Mean % Weed Control: 40.0%
[6]; 77DAA, 4 g ai/ha
  Mean % Weed Control: 82.5%
[6]; 84DAA, 4 g ai/ha
  Mean % Weed Control: 30.0%
[7]
  Mean % Weed Control: 57.5%
[8]; 29DAA
  Mean % Weed Control: 40.0%
[8]; 56DAA
  Mean % Weed Control: 20.0%
[9]; 31DAA, 3 g ai/ha
  Mean % Weed Control: 75.0%
[9]; 31DAA, 4 g ai/ha
  Mean % Weed Control: 75.0%
[9]; 53DAA, 3 g ai/ha
  Mean % Weed Control: 78.5%
[9]; 53DAA, 4 g ai/ha
  Mean % Weed Control: 79.5%
[9]; 84DAA, 3 g ai/ha
  Mean % Weed Control: 79%
[9]; 84DAA, 4 g ai/ha
  Mean % Weed Control: 80%
[10]
  Mean % Weed Control: 0.0%
[11]
  Mean % Weed Control: 2.5%
[12]; 14DAA, 3 g ai/ha
  Mean % Weed Control: 0.0%
[12]; 14DAA, 4 g ai/ha
  Mean % Weed Control: 0.0%
[12]; 28DAA, 3 g ai/ha
  Mean % Weed Control: 0.0%
[12]; 28DAA, 4 g ai/ha
  Mean % Weed Control: 0.0%
[12]; 56DAA, 3 g ai/ha
  Mean % Weed Control: 0.0%
[12]; 56DAA, 4 g ai/ha
  Mean % Weed Control: 0.0%
[13]; 14DAA
  Mean % Weed Control: 20.0%
[13]; 29DAA
  Mean % Weed Control: 10.0%
[13]; 56DAA
  Mean % Weed Control: 10.0%
